# Values quoted from earlier work in patent publication US20180296523A1, “USE OF POLYMETHOXYLATED FLAVONES TO AMELIORATE CIRCADIAN RHYTHM DISORDERS” (THE BOARD OF REGENTS OF THE UNIVERSITY OF TEXAS SY, priority 2017, published 2018).
# Tested on: Cps1 gene
# Settings: Clock^Δ19/Δ19 mutant mice; cited from earlier work
structure (smiles),measurement,value
COc1ccc(-c2cc(=O)c3c(OC)c(OC)c(OC)c(OC)c3o2)cc1OC [nobiletin],transcriptional induction of the Cps1 gene,impaired
